Measured values taken from patent US10034922B2, “Peptide having angiogenesis inhibitory activity and composition containing same” (GemVax & KAEL Co., Ltd., priority 2013, dated 2018).

Experiments:
HSP70 = HSP70 protein level by immunoblotting, serum-free media, 2 h treatment; format: cell-based, human; settings: MCF7 cells, PEP1 20 μM, 17-AAG 1 μM, KNK437 1 μM
Method: (§1) Jurkat and MCF7 cells ([…]) were seeded and incubated for 12 hours. After treating the starvation for 2 hours by adding the OPTI-MEM media, same as the shown figure, the cells were treated by the PEP1 at the different concentrations, by the scrambled peptides, […] (1 μM) or KNK437 (1 μM). After the 2-hour incubation, the cells were collected and lysated by using cell lysis buffer (Thermo Scientific, IL, USA). By using Bradford Protein Assay (Bio-Rad, USA), the protein concentration was quantified, and the samples were treated by SDS-PAGE and immunoblotting with α-HSP70 (sc-32239 and sc-66048, Santa Cruz, Calif., USA), α-HSP90 (ab1429, abcam, USA), α-GRP78 (sc-13968), α-HIF-1a (sc-10790) or α-GAPDH (sc-25778) antibodies. The immune reactive band was visualized by the intensive chemiluminescence kit (iNtRoN Biotechnology, INC, Korea), and analyzed by ImageQuant™ LAS-4000 (GE Healthcare Life Science, NJ, US).

HSP90 = HSP90 protein level by immunoblotting, serum-free media, 2 h treatment; format: cell-based, human; settings: 17-AAG 1 μM, KNK437 1 μM
Method: as §1

Row | Structure (SMILES) | amount of HSP70, comparison with HSP inhibitors (HSP70) | amount of HSP90, comparison with HSP inhibitors (HSP90; Jurkat cells, PEP1 5 μM) | amount of HSP90, comparison with HSP inhibitors (HSP90; MCF7 cells, PEP1 20 μM)
1 | C=CCNC1=C2C[C@@H](C)C[C@H](OC)[C@H](O)[C@@H](C)/C=C(\C)[C@H](OC(N)=O)[C@@H](OC)/C=C\C=C(/C)C(=O)NC(=CC1=O)C2=O [17-AAG] | very little effect | decreased | very little effect
2 | O=CN1CC/C(=C\c2ccc3c(c2)OCO3)C1=O [KNK437] | decrease | decreased | decrease
